From patent US10968193B2, “Antidiabetic bicyclic compounds” (Merck Sharp & Dohme Corp., priority 2014, dated 2021)
pEC50: −log10 of the molar value.

Molecular target: T1, human GPR40 (Homo sapiens, UniProt O14842)
T1 construct: expressed in transfected cells; host or cells: HEK cells stably expressing the aequorin reporter
Test: Inositol Phosphate Turnover (IP1) Assay 3
Type: cell-based
Details: HEK cells stably expressing human GPR40
Summary of the method: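 HEK cells stably expressing human GPR40, plated 16 h before, were treated with compound for 60 min at 37 °C in stimulation buffer. IP1 measured by HTRF (665/620 nm ratio) against an IP1 standard curve; activity normalized to a reference compound, EC50 from 4-parameter fit.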

T1 sequence (O14842 whole entry): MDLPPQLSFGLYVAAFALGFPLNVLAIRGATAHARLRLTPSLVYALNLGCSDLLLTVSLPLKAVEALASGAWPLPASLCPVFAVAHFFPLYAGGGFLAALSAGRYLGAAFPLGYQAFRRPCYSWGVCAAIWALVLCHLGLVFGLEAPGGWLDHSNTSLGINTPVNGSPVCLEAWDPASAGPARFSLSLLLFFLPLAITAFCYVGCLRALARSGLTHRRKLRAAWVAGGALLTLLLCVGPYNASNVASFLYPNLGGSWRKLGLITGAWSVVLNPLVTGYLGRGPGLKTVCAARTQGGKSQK

| pEC50 | Structure (SMILES) |
| --- | --- |
| 9.37 | CCN(CC)C(C)c1cc(C2CCc3ccc([C@H](C4CC4)[C@H](C)C(=O)O)cc3O2)ccc1-c1cc(OC)ncc1F (single isomer, unassigned) [Example 244] |
| 8.27 | CCN(CC)C(C)c1cc(C2CCc3ccc([C@H](C4CC4)[C@H](C)C(=O)O)cc3O2)ccc1-c1cc(OC)ncc1F (single isomer, unassigned) [Example 245] |
| 8.89 | CCN(C(C)C)C(C)c1cc(C2CCc3ccc([C@H](C4CC4)[C@H](C)C(=O)O)cc3O2)ccc1-c1ccnc(OC)c1 (single isomer, unassigned) [Example 247] |
| 7.94 | CCN(C(C)C)C(C)c1cc(C2CCc3ccc([C@H](C4CC4)[C@H](C)C(=O)O)cc3O2)ccc1-c1ccnc(OC)c1 (single isomer, unassigned) [Example 248] |
| 9.22 | COc1cc(-c2ccc(C3CCc4ccc([C@H](C5CC5)[C@H](C)C(=O)O)cc4O3)cc2CN2CCC3CC32)c(F)cn1 (single isomer, unassigned) [Example 256a] |
| 9.05 | COc1cc(-c2ccc(C3CCc4ccc([C@H](C5CC5)[C@H](C)C(=O)O)cc4O3)cc2CN2CCC3CC32)c(F)cn1 (single isomer, unassigned) [Example 256b] |
| 8.77 | CCC1CCCCN1Cc1cc(C2CCc3ccc(C(C4CC4)C(C)C(=O)O)cc3O2)ccc1-c1ccnc(OC)c1 (single isomer, unassigned) [Example 258a] |
| 8.66 | CCC1CCCCN1Cc1cc(C2CCc3ccc(C(C4CC4)C(C)C(=O)O)cc3O2)ccc1-c1ccnc(OC)c1 (single isomer, unassigned) [Example 258b] |
| 9.15 | CCC1CCCN1Cc1cc(C2CCc3ccc([C@H](C4CC4)[C@H](C)C(=O)O)cc3O2)ccc1-c1cc(OC)ncc1F (single isomer, unassigned) [Example 267a] |
| 10.00 | CCC1CCCN1Cc1cc(C2CCc3ccc([C@H](C4CC4)[C@H](C)C(=O)O)cc3O2)ccc1-c1cc(OC)ncc1F (single isomer, unassigned) [Example 267b] |
| 10.10 | CCC1CCCCN1Cc1cc(C2CCc3ccc([C@H](C4CC4)[C@H](C)C(=O)O)cc3O2)ccc1-c1cc(OC)ncc1F (single isomer, unassigned) [Example 273a] |
| 9.52 | CCC1CCCCN1Cc1cc(C2CCc3ccc([C@H](C4CC4)[C@H](C)C(=O)O)cc3O2)ccc1-c1cc(OC)ncc1F (single isomer, unassigned) [Example 273b] |
| 8.36 | CCN(CC)Cc1cc(C2CCc3ccc([C@H](C4CC4)[C@H](C)C(=O)O)cc3O2)ccc1-c1ccnc(OC)c1 (single isomer, unassigned) [Example 283] |
| 8.02 | COc1cc(-c2ccc(C3CCc4ccc([C@H](C5CC5)[C@H](C)C(=O)O)cc4O3)nc2CN2CCCC2)c(F)cn1 (some centres unmarked) [Example 90] |
| 6.33 | COc1cc(-c2ccc(C3CCc4ccc([C@H](C5CC5)[C@H](C)C(=O)O)cc4O3)nc2CN(C(C)C)C(C)C)ccn1 (some centres unmarked) [Example 91] |
| 10.15 | COc1cc(-c2ccc(C3CCc4ccc([C@H](C5CCC5)[C@H](C)C(=O)O)cc4O3)cc2CN2CCCC2C)c(F)cn1 (some centres unmarked) [Example 102] |
| 10.05 | COc1cc(-c2ccc(C3CCc4ccc([C@H](C5CCC5)[C@H](C)C(=O)O)cc4O3)cc2CN2CCCC2C)c(F)cn1 (some centres unmarked) [Example 103] |
| 6.98 | COc1cc(-c2ccc(C3CCc4ccc([C@H](C5CC5)[C@H](C)C(=O)O)cc4O3)c(CN3[C@H](C)CC[C@H]3C)c2)ccn1 (some centres unmarked) [Example 116] |
| 9.40 | COc1cc(-c2ccc(C3CCc4ccc([C@H](C5CC5)[C@H](C)C(=O)O)cc4O3)c(CN3CCCC[C@@H]3C)c2)ccn1 (some centres unmarked) [Example 121] |
| 9.15 | COc1cc(-c2ccc(C3CCc4ccc([C@H](C5CC5)[C@H](C)C(=O)O)cc4O3)c(CN3[C@H](C)CC[C@@H]3C)c2)ccn1 (some centres unmarked) [Example 122] |
| 9.70 | COc1cc(-c2ccc(C3CCc4ccc([C@H](C5CC5)[C@H](C)C(=O)O)cc4O3)c(CN3[C@H](C)CC[C@H]3C)c2)c(F)cn1 (some centres unmarked) [Example 127] |
| 10.05 | COc1cc(-c2ccc(C3CCc4ccc([C@H](C5CC5)[C@H](C)C(=O)O)cc4O3)c(CN3CCCC[C@@H]3C)c2)c(F)cn1 (some centres unmarked) [Example 131] |
| 9.52 | COc1cc(-c2ccc([C@H]3CCc4ccc([C@H](C5CC5)[C@H](C)C(=O)O)cc4O3)cc2CN2C[C@H]3C[C@H]3C2)c(F)cn1 [Example 138] |
| 9.30 | CCN(Cc1cc([C@H]2CCc3ccc([C@H](C4CC4)[C@H](C)C(=O)O)cc3O2)ccc1-c1cc(OC)ncc1F)C(C)C [Example 139] |
| 10.15 | COc1cc(-c2ccc([C@H]3CCc4ccc([C@H](C5CC5)[C@H](C)C(=O)O)cc4O3)cc2CN(C(C)C)C(C)C)c(F)cn1 [Example 170] |

| pEC50 | Structure (SMILES) |
| --- | --- |
| 7.28 | COc1cc(-c2ccc(C3CCc4ccc([C@H](C5CC5)[C@H](C)C(=O)O)cc4O3)cc2CN2CCCC2)ccn1 (stereo partly drawn) [Example 175, (2S, 3R)-3-cyclopropyl-3-(2-(4-(2-methoxypyridin-4-yl)-3-(pyrrolidin-1-ylmethyl)phenyl)-chroman-7-yl)-2-methylpropanoic acid] |
| 9.70 | COc1cc(-c2ccc([C@H]3CCc4ccc([C@H](C5CC5)[C@H](C)C(=O)O)cc4O3)cc2CN2CCCCC23CC3)ccn1 [Example 176] |
| 8.72 | COc1cc(-c2ccc(C3CCc4ccc([C@H](C5CC5)[C@H](C)C(=O)O)cc4O3)cc2CN2CC3CC3C2)c(C#N)cn1 (stereo partly drawn) [Example 191, (2S, 3R)-3-(2-(3-(3-azabicyclo[3.1.0]hexan-3-ylmethyl)-4-(5-cyano-2-methoxypyridin-4-yl)phenyl)chroman-7-yl)-3-cyclopropyl-2-methylpropanoic acid] |
| 10.15 | COc1cc(-c2ccc([C@@H]3CCc4ccc([C@H](C5CC5)[C@H](C)C(=O)O)cc4O3)cc2CN(C(C)C)C(C)C)c(F)cn1 [Example 225, Sodium (2S,3R)-3-cyclopropyl-3-((S)-2-(3-((diisopropylamino)methyl)-4-(5-fluoro-2-methoxypyridin-4-yl)phenyl)chroman-7-yl)-2-methylpropanoate] |
| 8.96 | COc1cc(-c2ccc([C@@H]3CCc4ccc([C@H](C5CC5)[C@H](C)C(=O)O)cc4O3)cc2CN(C)C(C)(C)C)c(F)cn1 [Example 226, Sodium (2S,3R)-3-((S)-2-(3-((tert-butyl(methyl)amino)methyl)-4-(5-fluoro-2-methoxypyridin-4-yl)phenyl)chroman-7-yl)-3-cyclopropyl-2-methylpropanoate] |
| 7.85 | COc1cc(-c2ccc(C3CCc4ccc([C@H](C5CC5)[C@@H](C)C(=O)O)cc4O3)cc2CN(C)C(C)(C)C)c(F)cn1 (some centres unmarked) [Example 227] |
| 9.92 | CCN(Cc1cc(C2CCc3ccc([C@H](C4CC4)[C@H](C)C(=O)O)cc3O2)ccc1-c1cc(OC)ncc1F)C(C)(C)C (some centres unmarked) [Example 228] |
| 10.15 | COc1cc(-c2ccc(C3CCc4ccc([C@H](C5CC5)[C@H](C)C(=O)O)cc4O3)cc2CN(C(C)C)C(C)(C)C)c(F)cn1 (some centres unmarked) [Example 229] |
| 10.05 | COc1cc(-c2ccc(C3CCc4ccc([C@H](C5CC5)[C@H](C)C(=O)O)cc4O3)cc2CN2C(C)(C)CCCC2(C)C)c(F)cn1 (some centres unmarked) [Example 230] |
| 9.80 | COc1cc(-c2ccc(C3CCc4ccc([C@H](C5CC5)[C@H](C)C(=O)O)cc4O3)cc2CN2[C@@H](C)CCC[C@@H]2C)c(F)cn1 (some centres unmarked) [Example 231] |
| 7.44 | COc1cc(-c2ccc([C@@H]3CCc4ccc([C@H](C5CC5)[C@H](C)C(=O)O)cc4O3)cc2CNC(C)C)c(F)cn1 [Example 232] |
| 7.38 | COc1cc(-c2ccc(C3CCc4ccc([C@H](C5CC5)[C@H](C)C(=O)O)cc4O3)cc2CNC(C)(C)C)c(F)cn1 (some centres unmarked) [Example 233] |
| 7.68 | COc1cc(-c2ccc(C3CCc4ccc([C@H](C5CC5)[C@H](C)C(=O)O)cc4O3)cc2CN(C)C(C)(C)C)ccn1 (some centres unmarked) [Example 234] |
| 8.89 | CCN(Cc1cc(C2CCc3ccc([C@H](C4CC4)[C@H](C)C(=O)O)cc3O2)ccc1-c1ccnc(OC)c1)C(C)(C)C (some centres unmarked) [Example 236] |
| 9.77 | COc1cc(-c2ccc(C3CCc4ccc([C@H](C5CC5)[C@H](C)C(=O)O)cc4O3)cc2CN(C(C)C)C(C)(C)C)ccn1 (some centres unmarked) [Example 237] |
| 9.85 | COc1cc(-c2ccc(C3CCc4ccc([C@H](C5CC5)[C@H](C)C(=O)O)cc4O3)cc2CN2C(C)(C)CCCC2(C)C)ccn1 (some centres unmarked) [Example 238] |
| 8.96 | COc1cc(-c2ccc(C3CCc4ccc([C@H](C5CC5)[C@H](C)C(=O)O)cc4O3)cc2CN2[C@H](C)CCC[C@@H]2C)ccn1 (some centres unmarked) [Example 239] |
| 8.85 | COc1cc(-c2ccc(C3CCc4ccc([C@H](C5CC5)[C@H](C)C(=O)O)cc4O3)cc2CN2[C@H](C)CCC[C@H]2C)ccn1 (some centres unmarked) [Example 240] |
| 8.96 | COc1cc(-c2ccc(C3CCc4ccc([C@H](C5CC5)[C@H](C)C(=O)O)cc4O3)cc2CN2[C@@H](C)CCC[C@@H]2C)ccn1 (some centres unmarked) [Example 241] |
| 8.51 | COc1cc(-c2ccc(C3CCc4ccc([C@H](C5CC5)[C@H](C)C(=O)O)cc4O3)cc2CN2CCCCC2(C)C)ccn1 (some centres unmarked) [Example 242] |
| 6.09 | COc1cc(-c2ccc(C3CCc4ccc([C@H](C5CC5)[C@H](C)C(=O)O)cc4O3)cc2CNC(C)C)ccn1 (some centres unmarked) [Example 243] |
| 8.66 | CCN(C)C(C)c1cc(C2CCc3ccc([C@H](C4CC4)[C@@H](C)C(=O)O)cc3O2)ccc1-c1cc(OC)ncc1F (some centres unmarked) [Example 246] |
| 7.85 | COc1cc(-c2ccc(C3CCc4ccc([C@H](C5CC5)[C@H](C)C(=O)O)cc4O3)cc2C(C)N2CCCC2)ccn1 (some centres unmarked) [Example 249] |
| 9.72 | COc1cc(-c2ccc([C@@H]3CCc4ccc([C@H](C5CC5)[C@H](C)C(=O)O)cc4O3)cc2CN2CC3CC3C2)c(F)cn1 (stereo partly drawn) [Example 250, Sodium (2S,3R)-3-((2S)-2-(3-((3-azabicyclo[3.1.0]hexan-3-yl)methyl)-4-(5-fluoro-2-methoxypyridin-4-yl)phenyl)chroman-7-yl)-3-cyclopropyl-2-methylpropanoate] |
| 9.52 | COc1cc(-c2ccc(C3CCc4ccc([C@H](C5CC5)[C@H](C)C(=O)O)cc4O3)cc2CN2[C@H](C)CC[C@@H]2C)c(F)cn1 (some centres unmarked) [Example 251] |
